# Reference: article PMC3914206
# Columns and labels:
# Assay type in all cases: binding
# Conditions in all cases: Compound Concentration 10 µM
# [1] = biological target: T1, panel of 442 kinases (Homo sapiens, UniProt Q9NWZ3)
# T1 construct: purchased KINOMEscan
# T1 sequence (Q9NWZ3 1-460): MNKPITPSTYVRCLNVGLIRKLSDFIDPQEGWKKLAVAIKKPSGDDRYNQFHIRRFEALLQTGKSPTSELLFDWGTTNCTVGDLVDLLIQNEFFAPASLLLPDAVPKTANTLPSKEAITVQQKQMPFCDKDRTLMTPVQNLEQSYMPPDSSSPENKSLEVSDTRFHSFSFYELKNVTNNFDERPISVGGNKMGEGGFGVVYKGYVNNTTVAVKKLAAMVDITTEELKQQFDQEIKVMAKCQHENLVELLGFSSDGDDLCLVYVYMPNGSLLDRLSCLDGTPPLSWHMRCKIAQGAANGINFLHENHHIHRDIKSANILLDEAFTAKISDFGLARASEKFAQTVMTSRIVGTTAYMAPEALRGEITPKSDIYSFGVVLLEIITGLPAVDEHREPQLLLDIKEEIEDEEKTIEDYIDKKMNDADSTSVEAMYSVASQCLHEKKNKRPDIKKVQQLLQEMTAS
# Excerpt: (§1) We assessed the selectivity of members of this scaffold using the KINOMEscan methodology across a near comprehensive panel of 442 kinases [[18,27]].
# [2] = biological target: T2, panel of 442 kinases (Homo sapiens, UniProt Q92918)
# T2 construct: purchased KINOMEscan
# T2 sequence (Q92918 whole entry): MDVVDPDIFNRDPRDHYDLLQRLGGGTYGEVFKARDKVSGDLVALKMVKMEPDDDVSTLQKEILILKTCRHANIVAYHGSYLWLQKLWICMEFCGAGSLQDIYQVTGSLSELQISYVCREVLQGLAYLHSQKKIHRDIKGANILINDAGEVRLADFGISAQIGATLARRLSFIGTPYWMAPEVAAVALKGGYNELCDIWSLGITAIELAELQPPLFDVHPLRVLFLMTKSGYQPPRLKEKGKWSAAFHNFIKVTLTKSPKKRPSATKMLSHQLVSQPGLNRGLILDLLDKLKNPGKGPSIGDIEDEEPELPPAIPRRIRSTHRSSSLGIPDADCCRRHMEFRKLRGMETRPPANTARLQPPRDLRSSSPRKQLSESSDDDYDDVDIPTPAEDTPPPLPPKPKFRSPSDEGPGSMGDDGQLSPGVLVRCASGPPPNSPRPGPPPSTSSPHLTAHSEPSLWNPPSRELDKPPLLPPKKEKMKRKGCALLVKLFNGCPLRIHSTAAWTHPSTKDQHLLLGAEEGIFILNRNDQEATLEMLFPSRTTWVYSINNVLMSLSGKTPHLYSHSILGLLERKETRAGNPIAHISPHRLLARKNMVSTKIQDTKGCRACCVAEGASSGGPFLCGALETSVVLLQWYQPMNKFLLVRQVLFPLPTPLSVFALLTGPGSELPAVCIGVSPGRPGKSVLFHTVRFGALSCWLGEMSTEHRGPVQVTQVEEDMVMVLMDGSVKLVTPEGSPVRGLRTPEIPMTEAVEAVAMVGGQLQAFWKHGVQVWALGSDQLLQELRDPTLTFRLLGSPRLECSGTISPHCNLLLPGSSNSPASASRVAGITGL
# Excerpt: as §1
# [3] = biological target: T3, panel of 442 kinases (Homo sapiens, UniProt O14730)
# T3 construct: purchased KINOMEscan
# T3 sequence (O14730 1-519): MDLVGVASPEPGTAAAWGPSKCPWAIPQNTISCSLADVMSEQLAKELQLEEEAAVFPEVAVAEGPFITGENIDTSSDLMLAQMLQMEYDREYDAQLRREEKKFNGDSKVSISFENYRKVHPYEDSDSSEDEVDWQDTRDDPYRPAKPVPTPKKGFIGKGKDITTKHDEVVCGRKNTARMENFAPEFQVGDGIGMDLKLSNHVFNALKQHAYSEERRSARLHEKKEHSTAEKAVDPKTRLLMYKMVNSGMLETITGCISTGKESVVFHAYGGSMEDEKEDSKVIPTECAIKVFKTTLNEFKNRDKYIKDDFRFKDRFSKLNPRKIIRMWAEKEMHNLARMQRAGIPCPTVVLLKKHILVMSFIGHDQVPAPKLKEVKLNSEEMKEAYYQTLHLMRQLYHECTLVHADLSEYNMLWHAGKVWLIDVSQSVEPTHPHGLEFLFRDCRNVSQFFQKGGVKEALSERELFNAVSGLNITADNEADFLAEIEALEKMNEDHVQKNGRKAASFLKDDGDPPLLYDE
# Excerpt: as §1
Compound,KINOMEscan: IRAK4 [1],KINOMEscan: HPK1 [2],KINOMEscan: RIOK3 [3]
CCOc1cc(C(=O)N2CCC(N3CCN(C)CC3)CC2)ccc1Nc1ncc2c(n1)N(C1CCCC1)c1ccccc1C(=O)N2C [Compound 26],100,94,89
"COc1cc(C(=O)N2CCC(N3CCN(C)CC3)CC2)ccc1Nc1ncc2c(n1)N(C1CCCC1)c1ccccc1C(=O)N2C [Compound 25, 11-cyclopentyl-2-((2-methoxy-4-(4-(4-methylpiperazin-1-yl)piperidine-1-carbonyl)phenyl)amino)-5-methyl-5H-benzo[e]pyrimido[5,4-b][1,4]diazepin-6(11H)-one]",100,89,84
COc1cc(C(=O)N2CCC(N3CCN(C)CC3)CC2)ccc1Nc1ncc2c(n1)N1CCc3cccc(c31)C(=O)N2C [Compound 24],–,–,74
COc1cc(C(=O)N2CCC(N3CCN(C)CC3)CC2)ccc1Nc1ncc2c(n1)N(C)c1ccccc1C(=O)N2C [15 (LRRK2-IN-1)],83,100,85
